Results from ChEMBL document CHEMBL2086381, “Identification of 4,5-dihydro-4-hydroxygeldanamycins as shunt products of geldanamycin biosynthesis” (J Nat Prod, 2012).

test system: HepG2; experiment: Cytotoxicity against human HepG2 cells; assay type: functional, cell-based

| SMILES | IC50 [µM] |
| --- | --- |
| COC1=C2C[C@@H](C)C[C@H](OC)[C@H](O)[C@@H](C)/C=C(\C)[C@H](OC(N)=O)[C@@H](OC)C[C@@H](O)/C=C(\C)C(=O)NC(=CC1=O)C2=O | 10.8 |
| COC1=C2C[C@@H](C)C[C@H](OC)[C@H](O)[C@@H](C)/C=C(\C)[C@H](OC(N)=O)[C@@H](OC)C[C@H](O)/C=C(\C)C(=O)NC(=CC1=O)C2=O | 10.5 |
| COC1=C2C[C@@H](C)C[C@H](OC)[C@H](O)[C@@H](C)/C=C(\C)[C@H](OC(N)=O)[C@@H](OC)/C=C\C=C(/C)C(=O)NC(=CC1=O)C2=O [GELDANAMYCIN] | 0.37 |
